The values below come from US11028090B2 (Dong Wha Pharm. Co., Ltd., priority 2017, dated 2021).

Read-outs that look alike come from different tables or passages of the source.

Data set [1] relates to acute myelogenous leukemia cells (MV-4-11 cells). The data set can be described thus: Cytotoxicity to acute myelogenous leukemia cells (MV-4-11 cells), CCK-8.
In data set [2] the target is BRD4 (BD1+BD2) bromodomain (Homo sapiens (Human), UniProt O60885). The data set can be described thus: BRD4 binding inhibition (AlphaScreen, GST-BRD4 vs tetraacetylated histone H4 peptide). In short, it runs like this: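 GST-BRD4 (BD1+BD2) and biotinylated tetraacetyl-histone H4 peptide, each at 100 nM in HEPES pH 7.4 buffer with BSA and DTT, were combined with compound. Glutathione acceptor and streptavidin donor beads were added, then incubated 30 min at room temperature in the dark. Read-out was AlphaScreen signal.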
For orientation: Alpha assays give light when donor and acceptor beads are brought close together.

Where [3] appears, read: Homo sapiens, MV4-11, 72 h, read-out: MV-4-11 Cytotoxicity IC50.
[4] abbreviates: GST-BRD4 (BD1+BD2) / biotinylated acetyl-histone H4 (Lys5,8,12,16) peptide, read-out: IC50, BRD4 binding inhibition.
Where [5] appears, read: GST-BRD4 (BD1+BD2) vs biotinylated acetyl-histone H4 peptide, AlphaScreen, read-out: BRD4 IC50.
Where [6] appears, read: Homo sapiens, MV4-11, 72 h, read-out: IC50, cytotoxicity against acute myelogenous leukemia cells.

Take `COc1cc(N)c(NC(=O)c2ccc3c(c2)nc(NCCCCNC(=O)CC(C)C)c2nnc(C)n23)cc1OC` [Example 217, 1-methyl-4-[4-(3-methyl-butyrylamino)-butylamino]-[1,2,4]triazolo[4,3-a]quinoxaline-7-carboxylic acid-(2-amino-4,5-dimethoxy-phenyl)-amide]: the IC50 (commonly the concentration that inhibits the measured activity by half) in data set [1] (setting [3]) is 256 nM; in data set [2] (setting [4]), no more than 50 nM; in data set [2] (setting [5]) it was 16 nM.
Turning to `Cc1nnc2c(NCCCCNC(=O)C(C)(C)C)nc3cc4c(cc3n12)OCCO4` [Example 180, 2,2-dimethyl-N-[4-(1-methyl-8,9-dihydro-7,10-dioxa-2,3,5,11b-tetraaza-cyclopenta[a]anthracene-4-ylamino)-butyl]-propionamide], the IC50 in data set [1] (setting [6]) is no more than 200 nM; in data set [1] (setting [3]), 190 nM; in data set [2] (setting [4]), no more than 50 nM; in data set [2] (setting [5]), 17 nM.
Consider `COc1cc2nc(NCCCCNC(=O)c3ccccc3OC)c3nnc(C)n3c2cc1OC` [Example 97, N-[4-(7,8-dimethoxy-1-methyl-[1,2,4]triazolo[4,3-a]quinoxaline-4-ylamino)-butyl]-2-methoxy-benzamide], for which the IC50 in data set [1] (setting [3]) was 510 nM; in data set [2] (setting [4]), no more than 50 nM.
Consider `Cc1nnc2c(NCCCCNC(=O)[C@H](O)C(C)C)nc3cc(-c4nc5ccccc5n4C)ccc3n12` [Example 235, 2-(R)-hydroxy-3-methyl-N-{4-[1-methyl-7-(1-methyl-1H-benzimidazole-2-yl)-[1,2,4]triazolo[4,3-a]quinoxaline-4-ylamino]-butyl}-butyramide], for which the IC50 in data set [1] (setting [3]) is 390 nM; in data set [2] (setting [4]), no more than 50 nM; in data set [2] (setting [5]), 11 nM.
In the same order, the values of `CCc1nnc2c(NCCCCNC(=O)OC(C)(C)C)nc3cc(OC)ccc3n12` [Example 620, [4-(7-methoxy-1-ethyl-[1,2,4]triazolo[4,3-a]quinoxaline-4-ylamino)-butyl]-carbamic acid-tert-butylester] are 700 nM, no more than 50 nM and 16 nM.
`Cc1nnc2c(NCCCCNC(=O)CC(C)C)nc3cc(NS(=O)(=O)CC(F)(F)F)ccc3n12` [Example 258]: the IC50 was 345 nM in data set [1] (setting [3]), no more than 50 nM in data set [2] (setting [4]) and 49 nM in data set [2] (setting [5]).
Turning to `COc1cc2nc(NCCCCNC(=O)[C@@H](O)C(C)C)c3nnc(C)n3c2cc1C(F)(F)F` [Example 479, 2-(S)-hydroxy-N-[4-(7-methoxy-1-methyl-8-trifluoromethyl-[1,2,4]triazolo[4,3-a]quinoxaline-4-ylamino)-butyl]-3-methyl-butyramide], the half-maximal inhibitory concentration (IC50) is 240 nM in data set [1] (setting [3]), no more than 10 nM in data set [2] (setting [4]) and 5 nM in data set [2] (setting [5]).
In the same order, the values of `COc1cc2nc(NCCCCNC(=O)CC(C)C)c3nnc(C)n3c2cc1NC(=O)Cc1ccccc1` [Example 564] are 610 nM, no more than 10 nM and 9 nM.
On to `COc1ccc2c(c1)nc(NCCCCNC(=O)[C@@H](NC(=O)CC(C)C)C(C)C)c1nnc(C)n12` [Example 322, (S)-N-[4-(7-methoxy-1-methyl-[1,2,4]triazolo[4,3-a]quinoxaline-4-ylamino)-butyl]-3-methyl-2-(3-methyl-butyrylamino)-butyramide], for which the IC50 was no more than 200 nM in data set [1] (setting [6]), 157 nM in data set [1] (setting [3]), no more than 50 nM in data set [2] (setting [4]) and 14 nM in data set [2] (setting [5]).
Take `CCCNc1ccc2nc(NCCCCNC(=O)CC(C)C)c3nnc(C)n3c2c1` [Example 552, 3-methyl-N-[4-(1-methyl-8-propylamino-[1,2,4]triazolo[4,3-a]quinoxaline-4-ylamino)-butyl]-butyramide]: the IC50 is no more than 200 nM in data set [1] (setting [6]), 157 nM in data set [1] (setting [3]), no more than 50 nM in data set [2] (setting [4]) and 21 nM in data set [2] (setting [5]).
Regarding `COCCOc1cc2nc(NCCCCNC(=O)C(C)(C)C)c3nnc(C)n3c2cc1OCCOC` [Example 164, N-{4-[7,8-bis-(2-methoxy-ethoxy)-1-methyl-[1,2,4]triazolo[4,3-a]quinoxaline-4-ylamino]-butyl}-2,2-dimethyl-propionamide], the 50% inhibitory concentration (IC50) in data set [1] (setting [3]) is 570 nM; in data set [2] (setting [4]), no more than 50 nM; in data set [2] (setting [5]), 37 nM.
In the same order, the values of `Cc1nnc2c(NCCCCNC(=O)[C@@H](O)C(C)C)nc3cc(F)c(F)cc3n12` [Example 39, N-[4-(7,8-difluoro-1-methyl-[1,2,4]triazolo[4,3-a]quinoxaline-4-ylamino)-butyl]-2-(S)-hydroxy-3-methyl-butyramide] are 190 nM, no more than 10 nM and 6 nM.
Consider `C=CCOC(=O)NCCCCNc1nc2cc(OCCOC)ccc2n2c(C)nnc12` [Example 370, {4-[7-(2-methoxy-ethoxy)-1-methyl-[1,2,4]triazolo[4,3-a]quinoxaline-4-ylamino]-butyl}-carbamic acid allylester], for which the IC50 in data set [1] (setting [3]) was 240 nM; in data set [2] (setting [4]), no more than 50 nM; in data set [2] (setting [5]), 14 nM.
For `Cc1nnc2c(NCCCCNC(=O)Cc3cccs3)nc3cc4c(cc3n12)OCCO4` [Example 185, N-[4-(1-methyl-8,9-dihydro-7,10-dioxa-2,3,5,11b-tetraaza-cyclopenta[a]anthracene-4-ylamino)-butyl]-2-thiophene-2-yl-acetamide], the IC50 in data set [1] (setting [6]) was no more than 200 nM; in data set [1] (setting [3]), 20 nM; in data set [2] (setting [4]), no more than 50 nM; in data set [2] (setting [5]), 19 nM.
With `COc1ccc2c(c1)nc(NCCCCNC(=O)OC1CCCC1)c1nnc(C)n12` [Example 332, [4-(7-methoxy-1-methyl-[1,2,4]triazolo[4,3-a]quinoxaline-4-ylamino)-butyl]-carbamic acid cyclopentylester], the IC50 in data set [1] (setting [6]) is no more than 200 nM; in data set [1] (setting [3]) it was 10 nM; in data set [2] (setting [4]), no more than 50 nM; in data set [2] (setting [5]), 17 nM.
Consider `Cc1nnc2c(NCCCCNC(=O)CC(C)(C)C)nc3cc(OC(F)(F)F)ccc3n12` [Example 272, 3,3-dimethyl-N-[4-(1-methyl-7-trifluoromethoxy-[1,2,4]triazolo[4,3-a]quinoxaline-4-ylamino)-butyl]-butyramide], for which the 50% inhibitory concentration (IC50) was 810 nM in data set [1] (setting [3]), no more than 50 nM in data set [2] (setting [4]) and 25 nM in data set [2] (setting [5]).
In the same order, the values of `Cc1nnc2c(NCCCCNC(=O)OC(C)(C)C)nc3cc(N4CCOCC4)ccc3n12` [Example 497, [4-(1-methyl-7-morpholine-4-yl-[1,2,4]triazolo[4,3-a]quinoxaline-4-ylamino)-butyl]-carbamic acid-tert-butylester] are 730 nM, no more than 50 nM and 38 nM.
For `Cc1nnc2c(NCCCCNC(=O)OC3CCCC3)nc3cc(-c4nc5ccccc5n4C)ccc3n12` [Example 229, {4-[1-methyl-7-(1-methyl-1H-benzoimidazole-2-yl)-[1,2,4]triazolo[4,3-a]quinoxaline-4-ylamino]-butyl}-carbamic acid cyclopentylester], the IC50 in data set [1] (setting [6]) is no more than 200 nM; in data set [1] (setting [3]), 150 nM; in data set [2] (setting [4]), no more than 10 nM; in data set [2] (setting [5]) it was 3 nM.
As for `COc1cc2c(cc1F)nc(NCCCCNC(=O)CC(C)C)c1nnc(C)n12` [Example 575, N-[4-(7-fluoro-8-methoxy-1-methyl-[1,2,4]triazolo[4,3-a]quinoxaline-4-ylamino)-butyl]-3-methyl-butyramide], the IC50 in data set [1] (setting [3]) was found to be 337 nM; in data set [2] (setting [5]), 51 nM.
Regarding `COc1cc2nc(NCCCCNC(=O)CC(C)C)c3nnc(C)n3c2cc1[N+](=O)[O-]` [Example 555, N-[4-(7-methoxy-1-methyl-8-nitro-[1,2,4]triazolo[4,3-a]quinoxaline-4-ylamino)-butyl]-3-methyl-butyramide], the IC50 was no more than 200 nM in data set [1] (setting [6]), 118 nM in data set [1] (setting [3]) and 65 nM in data set [2] (setting [5]).
Consider “benzoic acid 1-methyl-4-[4-(3-methyl-butylamino)-butylamino]-[1,2,4]triazolo[4,3-a]quinoxaline-7-yl ester [Example 350]”, for which the IC50 in data set [1] (read-out: IC50, cytotoxicity against acute myelogenous leukemia cells, MV-4-11 cells, 72 hours, CCK-8) was no more than 200 nM; in data set [1] (read-out: MV-4-11 Cytotoxicity IC50, MV-4-11 cells, 72 hours, CCK-8), 71 nM; in data set [2] (setting [4]) it was no more than 50 nM; in data set [2] (setting [5]), 33 nM.
As for `CNc1cc2c(cc1OC)nc(NCCCCNC(=O)CC(C)C)c1nnc(C)n12` [Example 557, N-[4-(7-methoxy-1-methyl-8-methylamino-[1,2,4]triazolo[4,3-a]quinoxaline-4-ylamino)-butyl]-3-methyl-butyramide], the IC50 in data set [1] (setting [3]) was 280 nM; in data set [2] (setting [4]) it was no more than 50 nM; in data set [2] (setting [5]) it was 13 nM.
For `COc1cc2nc(NCCCCNC(=O)c3ccccn3)c3nnc(C)n3c2cc1OC` [Example 105, pyridine-2-carboxylic acid-[4-(7,8-dimethoxy-1-methyl-[1,2,4]triazolo[4,3-a]quinoxaline-4-ylamino)-butyl]-amide], the IC50 in data set [1] (setting [3]) is 650 nM; in data set [2] (setting [5]), 60 nM.
As for `Cc1nnc2c(NCCCCNC(=O)c3ccccc3)nc3cc(OC(F)(F)F)ccc3n12` [Example 273, N-[4-(1-methyl-7-trifluoromethoxy-[1,2,4]triazolo[4,3-a]quinoxaline-4-ylamino)-butyl]-benzamide], the values for the IC50 in data set [1] (setting [3]), in data set [2] (setting [4]) and in data set [2] (setting [5]) were 510 nM, no more than 50 nM and 49 nM, respectively.
As to `Cc1nnc2c(NCCCCNC(=O)OCC(C)C)nc3cc(-n4ccnc4)ccc3n12` [Example 493], the IC50 was no more than 200 nM in data set [1] (setting [6]), 48 nM in data set [1] (setting [3]), no more than 10 nM in data set [2] (setting [4]) and 5 nM in data set [2] (setting [5]).
